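Dose response: 5 concentrations. Exposure: 48 h. Format: 96-well plates. Endpoint: linear interpolation; highest concentration if not reached. GI50 = concentration required for 50% inhibition of growth.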 Active and inactive are the calls of the source. Cut-off read from the data, not from the text of the source: active = GI50 up to about 1.1 µM and inactive = higher.
What was measured:
Assay in all cases: NCI tumour cell line growth inhibition, 48 h
UACC-62 = test system: UACC-62
HCT-116 = test system: HCT-116
COLO 205 = test system: COLO 205
MCF7 = test system: MCF7
UACC-257 = test system: UACC-257
SF-539 = test system: SF-539
UO-31 = test system: UO-31
SW-620 = test system: SW-620
CAKI-1 = test system: CAKI-1
SR = test system: SR
HOP-62 = test system: HOP-62
Malme-3M = test system: Malme-3M
A498 = test system: A498
EKVX = test system: EKVX
BT-549 = test system: BT-549
NCI/ADR-RES = test system: NCI/ADR-RES
HCT-15 = test system: HCT-15
NCI-H23 = test system: NCI-H23
M14 = test system: M14
NCI-H226 = test system: NCI-H226
786-0 = test system: 786-0
SK-OV-3 = test system: SK-OV-3
A549 = test system: A549
RPMI-8226 = test system: RPMI-8226
OVCAR-3 = test system: OVCAR-3
KM12 = test system: KM12
SF-268 = test system: SF-268
SK-MEL-28 = test system: SK-MEL-28
OVCAR-8 = test system: OVCAR-8
NCI-H522 = test system: NCI-H522
OVCAR-4 = test system: OVCAR-4
HOP-92 = test system: HOP-92
HCC 2998 = test system: HCC 2998
TK-10 = test system: TK-10
SN12C = test system: SN12C
MOLT-4 = test system: MOLT-4
U-251 = test system: U-251
OVCAR-5 = test system: OVCAR-5
HT-29 = test system: HT-29
CCRF-CEM = test system: CCRF-CEM
SNB-19 = test system: SNB-19
IGROV-1 = test system: IGROV-1
K562 = test system: K562
DU-145 = test system: DU-145
SK-MEL-2 = test system: SK-MEL-2
ACHN = test system: ACHN
LOX IMVI = test system: LOX IMVI
MDA-MB-231 = test system: MDA-MB-231
SK-MEL-5 = test system: SK-MEL-5
PC-3 = test system: PC-3
MDA-MB-435 = test system: MDA-MB-435
T47D = test system: T47D
SF-295 = test system: SF-295
RXF 393 = test system: RXF 393
MDA-N = test system: MDA-N
SNB-75 = test system: SNB-75
HL-60 = test system: HL-60

O=C(CCc1cc(O)cc(O)c1)NCCCNC(=O)CCc1cc(O)cc(O)c1
GI50 (UACC-62): > 100 µM (inactive) | GI50 (HCT-116): > 100 µM (inactive) | GI50 (COLO 205): > 100 µM (inactive) | GI50 (MCF7): > 100 µM (inactive) | GI50 (UACC-257): > 100 µM (inactive) | GI50 (SF-539): > 100 µM (inactive) | GI50 (UO-31): > 100 µM (inactive) | GI50 (SW-620): > 100 µM (inactive) | GI50 (CAKI-1): > 100 µM (inactive) | GI50 (SR): > 100 µM (inactive) | GI50 (HOP-62): > 100 µM (inactive) | GI50 (Malme-3M): > 100 µM (inactive) | GI50 (A498): > 100 µM (inactive) | GI50 (EKVX): > 100 µM (inactive) | GI50 (BT-549): > 100 µM (inactive) | GI50 (NCI/ADR-RES): > 100 µM (inactive) | GI50 (HCT-15): > 100 µM | GI50 (NCI-H23): > 100 µM (inactive) | GI50 (M14): > 100 µM (inactive) | GI50 (NCI-H226): > 100 µM (inactive) | GI50 (786-0): > 100 µM (inactive) | GI50 (SK-OV-3): > 100 µM (inactive) | GI50 (A549): > 100 µM (inactive) | GI50 (RPMI-8226): > 100 µM (inactive) | GI50 (OVCAR-3): > 100 µM (inactive) | GI50 (KM12): > 100 µM (inactive) | GI50 (SF-268): > 100 µM (inactive) | GI50 (SK-MEL-28): > 100 µM (inactive) | GI50 (OVCAR-8): > 100 µM (inactive) | GI50 (NCI-H522): > 100 µM (inactive) | GI50 (OVCAR-4): > 100 µM (inactive) | GI50 (HOP-92): > 100 µM (inactive) | GI50 (HCC 2998): > 100 µM (inactive) | GI50 (TK-10): > 100 µM (inactive) | GI50 (SN12C): > 100 µM (inactive) | GI50 (MOLT-4): > 100 µM (inactive) | GI50 (U-251): > 100 µM (inactive) | GI50 (OVCAR-5): > 100 µM (inactive) | GI50 (HT-29): > 100 µM (inactive) | GI50 (CCRF-CEM): > 100 µM (inactive) | GI50 (SNB-19): > 100 µM (inactive) | GI50 (IGROV-1): > 100 µM (inactive) | GI50 (K562): > 100 µM (inactive) | GI50 (DU-145): > 100 µM (inactive) | GI50 (SK-MEL-2): > 100 µM (inactive) | GI50 (ACHN): > 100 µM (inactive) | GI50 (LOX IMVI): > 100 µM (inactive) | GI50 (MDA-MB-231): > 100 µM (inactive) | GI50 (SK-MEL-5): > 100 µM (inactive) | GI50 (PC-3): > 100 µM (inactive) | GI50 (MDA-MB-435): > 100 µM (inactive) | GI50 (T47D): > 100 µM (inactive) | GI50 (SF-295): > 100 µM (inactive) | GI50 (RXF 393): > 100 µM (inactive) | GI50 (MDA-N): > 100 µM (inactive)

N=c1c2c(-c3ccccc3)c[nH]c2ncn1N
GI50 (UACC-62): > 100 µM (inactive) | GI50 (HCT-116): > 100 µM (inactive) | GI50 (COLO 205): > 100 µM (inactive) | GI50 (MCF7): > 100 µM (inactive) | GI50 (UACC-257): > 100 µM (inactive) | GI50 (SF-539): > 100 µM (inactive) | GI50 (UO-31): > 100 µM (inactive) | GI50 (SW-620): > 100 µM (inactive) | GI50 (CAKI-1): > 100 µM (inactive) | GI50 (HOP-62): > 100 µM (inactive) | GI50 (A498): > 100 µM (inactive) | GI50 (EKVX): > 100 µM (inactive) | GI50 (BT-549): > 100 µM (inactive) | GI50 (NCI/ADR-RES): > 100 µM (inactive) | GI50 (HCT-15): > 100 µM | GI50 (NCI-H23): > 100 µM (inactive) | GI50 (M14): > 100 µM (inactive) | GI50 (NCI-H226): > 100 µM (inactive) | GI50 (786-0): > 100 µM (inactive) | GI50 (SK-OV-3): > 100 µM (inactive) | GI50 (A549): > 100 µM (inactive) | GI50 (RPMI-8226): > 100 µM (inactive) | GI50 (OVCAR-3): > 100 µM (inactive) | GI50 (SNB-75): > 100 µM (inactive) | GI50 (KM12): > 100 µM (inactive) | GI50 (SK-MEL-28): > 100 µM (inactive) | GI50 (OVCAR-8): > 100 µM (inactive) | GI50 (NCI-H522): > 100 µM (inactive) | GI50 (OVCAR-4): > 100 µM (inactive) | GI50 (HOP-92): > 100 µM (inactive) | GI50 (HCC 2998): > 100 µM (inactive) | GI50 (TK-10): > 100 µM (inactive) | GI50 (SN12C): > 100 µM (inactive) | GI50 (MOLT-4): > 100 µM (inactive) | GI50 (HL-60): > 100 µM (inactive) | GI50 (U-251): > 100 µM (inactive) | GI50 (OVCAR-5): > 100 µM (inactive) | GI50 (HT-29): > 100 µM (inactive) | GI50 (CCRF-CEM): > 100 µM (inactive) | GI50 (SNB-19): > 100 µM (inactive) | GI50 (IGROV-1): > 100 µM (inactive) | GI50 (K562): > 100 µM (inactive) | GI50 (SK-MEL-2): > 100 µM (inactive) | GI50 (ACHN): > 100 µM (inactive) | GI50 (LOX IMVI): > 100 µM (inactive) | GI50 (MDA-MB-231): > 100 µM (inactive) | GI50 (SK-MEL-5): > 100 µM (inactive) | GI50 (PC-3): > 100 µM (inactive) | GI50 (MDA-MB-435): > 100 µM (inactive) | GI50 (T47D): > 100 µM (inactive) | GI50 (SF-295): > 100 µM (inactive) | GI50 (MDA-N): > 100 µM (inactive)

Reference: ChEMBL document CHEMBL1201862, “PubChem BioAssay data set” (2004)
